Numbers after ± are expanded uncertainties.
Columns and labels:
[1] = Molar enthalpy of transition or fusion; conditions: Crystal 1; Adiabatic calorimetry
[2] = for molar entropy: 101.33 kPa, Small (less than 1 g) adiabatic calorimetry; for vapor or sublimation pressure: Calculated from knudsen effusion weight loss; for Triple point temperature: Adiabatic calorimetry

CCCCCCCCCCCCCCCCn1cc[n+](C)c1.O=S(=O)([N-]S(=O)(=O)C(F)(F)F)C(F)(F)F
Molar enthalpy of transition or fusion [1]: 51.28 ± 0.24 kJ/mol
molar entropy ([2]; 5 K, Crystal 2): 1.23 ± 0.06 J/K/mol
molar entropy ([2]; 10 K, Crystal 2): 7.81 ± 0.26 J/K/mol
molar entropy ([2]; 15 K, Crystal 2): 19.15 ± 0.51 J/K/mol
molar entropy ([2]; 20 K, Crystal 2): 33.76 ± 0.72 J/K/mol
molar entropy ([2]; 25 K, Crystal 2): 50.4 ± 0.87 J/K/mol
molar entropy ([2]; 30 K, Crystal 2): 68.27 ± 0.9 J/K/mol
molar entropy ([2]; 35 K, Crystal 2): 86.83 ± 1 J/K/mol
molar entropy ([2]; 40 K, Crystal 2): 105.7 ± 1.2 J/K/mol
molar entropy ([2]; 45 K, Crystal 2): 124.7 ± 1.3 J/K/mol
molar entropy ([2]; 50 K, Crystal 2): 143.7 ± 1.5 J/K/mol
molar entropy ([2]; 60 K, Crystal 2): 181.5 ± 1.8 J/K/mol
molar entropy ([2]; 70 K, Crystal 2): 218.5 ± 2.1 J/K/mol
molar entropy ([2]; 80 K, Crystal 2): 254.6 ± 2.4 J/K/mol
molar entropy ([2]; 90 K, Crystal 2): 289.6 ± 2.5 J/K/mol
molar entropy ([2]; 100 K, Crystal 2): 323.6 ± 2.8 J/K/mol
molar entropy ([2]; 110 K, Crystal 2): 356.7 ± 3.1 J/K/mol
molar entropy ([2]; 120 K, Crystal 2): 388.9 ± 3.3 J/K/mol
molar entropy ([2]; 130 K, Crystal 2): 420.2 ± 3.5 J/K/mol
molar entropy ([2]; 140 K, Crystal 2): 450.7 ± 3.7 J/K/mol
molar entropy ([2]; 150 K, Crystal 2): 480.4 ± 4 J/K/mol
molar entropy ([2]; 160 K, Crystal 2): 509.6 ± 4.2 J/K/mol
molar entropy ([2]; 170 K, Crystal 2): 538.1 ± 4.4 J/K/mol
molar entropy ([2]; 180 K, Crystal 2): 566.1 ± 4.6 J/K/mol
molar entropy ([2]; 190 K, Crystal 2): 593.7 ± 4.8 J/K/mol
molar entropy ([2]; 200 K, Crystal 2): 621 ± 5 J/K/mol
molar entropy ([2]; 210 K, Crystal 2): 647.9 ± 5.1 J/K/mol
molar entropy ([2]; 220 K, Crystal 2): 674.5 ± 5.3 J/K/mol
molar entropy ([2]; 230 K, Crystal 2): 701.1 ± 5.5 J/K/mol
molar entropy ([2]; 240 K, Crystal 2): 727.5 ± 5.7 J/K/mol
molar entropy ([2]; 250 K, Crystal 2): 754.1 ± 6 J/K/mol
molar entropy ([2]; 260 K, Crystal 2): 780.8 ± 6.2 J/K/mol
molar entropy ([2]; 270 K, Crystal 2): 808.1 ± 6.4 J/K/mol
molar entropy ([2]; 280 K, Crystal 2): 836.2 ± 6.6 J/K/mol
molar entropy ([2]; 290 K, Crystal 2): 866.1 ± 6.8 J/K/mol
molar entropy ([2]; 298.15 K, Crystal 2): 893.4 ± 7 J/K/mol
molar entropy ([2]; 300 K, Crystal 2): 900.3 ± 7 J/K/mol
molar entropy ([2]; 305.5 K, Crystal 1): 922.5 ± 7.2 J/K/mol
molar entropy ([2]; 305.5 K, Crystal 2): 922.5 ± 7.2 J/K/mol
molar entropy ([2]; 310 K, Crystal 1): 941 ± 7.3 J/K/mol
molar entropy ([2]; 319.25 K, Crystal 1): 971.3 ± 7.5 J/K/mol
molar entropy ([2]; 319.25 K, Liquid): 1132 ± 9 J/K/mol
molar entropy ([2]; 320 K, Liquid): 1134 ± 9 J/K/mol
molar entropy ([2]; 330 K, Liquid): 1164 ± 9 J/K/mol
molar entropy ([2]; 340 K, Liquid): 1194 ± 9 J/K/mol
molar entropy ([2]; 350 K, Liquid): 1222 ± 9 J/K/mol
molar entropy ([2]; 360 K, Liquid): 1251 ± 9 J/K/mol
molar entropy ([2]; 370 K, Liquid): 1279 ± 9 J/K/mol
vapor or sublimation pressure ([2]; 508.07 K, Liquid): 3.21e-05 ± 2e-06 kPa
vapor or sublimation pressure ([2]; 513.07 K, Liquid): 4.5e-05 ± 2.8e-06 kPa
vapor or sublimation pressure ([2]; 518.07 K, Liquid): 6.31e-05 ± 3.9e-06 kPa
vapor or sublimation pressure ([2]; 523.07 K, Liquid): 8.75e-05 ± 5.4e-06 kPa
vapor or sublimation pressure ([2]; 528.06 K, Liquid): 0.0001197 ± 7.3e-06 kPa
vapor or sublimation pressure ([2]; 533.07 K, Liquid): 0.0001644 ± 1e-05 kPa
Triple point temperature ([2]; Crystal 1): 319.25 ± 0.05 K
Triple point temperature ([2]; Crystal 2): 305.5 ± 0.5 K

CCCCCCCCCCn1cc[n+](C)c1.O=S(=O)([N-]S(=O)(=O)C(F)(F)F)C(F)(F)F
Molar enthalpy of transition or fusion [1]: 28.67 ± 0.13 kJ/mol
molar entropy ([2]; 5 K, Crystal 2): 1.18 ± 0.06 J/K/mol
molar entropy ([2]; 10 K, Crystal 2): 7.33 ± 0.25 J/K/mol
molar entropy ([2]; 15 K, Crystal 2): 17.93 ± 0.49 J/K/mol
molar entropy ([2]; 20 K, Crystal 2): 31.5 ± 0.68 J/K/mol
molar entropy ([2]; 25 K, Crystal 2): 46.8 ± 0.81 J/K/mol
molar entropy ([2]; 30 K, Crystal 2): 63.01 ± 0.83 J/K/mol
molar entropy ([2]; 35 K, Crystal 2): 79.61 ± 0.97 J/K/mol
molar entropy ([2]; 40 K, Crystal 2): 96.26 ± 1.1 J/K/mol
molar entropy ([2]; 50 K, Crystal 2): 129.2 ± 1.3 J/K/mol
molar entropy ([2]; 60 K, Crystal 2): 161.4 ± 1.7 J/K/mol
molar entropy ([2]; 70 K, Crystal 2): 192.7 ± 1.9 J/K/mol
molar entropy ([2]; 80 K, Crystal 2): 222.8 ± 2.1 J/K/mol
molar entropy ([2]; 90 K, Crystal 2): 252 ± 2.2 J/K/mol
molar entropy ([2]; 100 K, Crystal 2): 280.3 ± 2.4 J/K/mol
molar entropy ([2]; 110 K, Crystal 2): 307.8 ± 2.7 J/K/mol
molar entropy ([2]; 120 K, Crystal 2): 334.4 ± 2.9 J/K/mol
molar entropy ([2]; 130 K, Crystal 2): 360.4 ± 3.1 J/K/mol
molar entropy ([2]; 140 K, Crystal 2): 385.8 ± 3.3 J/K/mol
molar entropy ([2]; 150 K, Crystal 2): 410.5 ± 3.5 J/K/mol
molar entropy ([2]; 160 K, Crystal 2): 434.8 ± 3.6 J/K/mol
molar entropy ([2]; 170 K, Crystal 2): 458.6 ± 3.8 J/K/mol
molar entropy ([2]; 180 K, Crystal 2): 482.1 ± 4 J/K/mol
molar entropy ([2]; 190 K, Crystal 2): 505.4 ± 4.1 J/K/mol
molar entropy ([2]; 200 K, Crystal 2): 528.6 ± 4.2 J/K/mol
molar entropy ([2]; 210 K, Crystal 2): 551.8 ± 4.4 J/K/mol
molar entropy ([2]; 220 K, Crystal 2): 575.2 ± 4.6 J/K/mol
molar entropy ([2]; 230 K, Crystal 2): 599.3 ± 4.8 J/K/mol
molar entropy ([2]; 240 K, Crystal 2): 625.2 ± 5 J/K/mol
molar entropy ([2]; 249 K, Crystal 1): 653.6 ± 5.2 J/K/mol
molar entropy ([2]; 249 K, Crystal 2): 653.6 ± 5.2 J/K/mol
molar entropy ([2]; 252 K, Crystal 1): 662.4 ± 5.3 J/K/mol
molar entropy ([2]; 260 K, Crystal 1): 682.3 ± 5.5 J/K/mol
molar entropy ([2]; 270 K, Crystal 1): 707.5 ± 5.7 J/K/mol
molar entropy ([2]; 277.33 K, Crystal 1): 726.3 ± 5.7 J/K/mol
molar entropy ([2]; 277.33 K, Liquid): 829.8 ± 6.4 J/K/mol
molar entropy ([2]; 280 K, Liquid): 836.9 ± 6.6 J/K/mol
molar entropy ([2]; 290 K, Liquid): 863.1 ± 6.8 J/K/mol
molar entropy ([2]; 298.15 K, Liquid): 883.9 ± 6.9 J/K/mol
molar entropy ([2]; 300 K, Liquid): 888.6 ± 7 J/K/mol
molar entropy ([2]; 310 K, Liquid): 913.5 ± 7.1 J/K/mol
molar entropy ([2]; 320 K, Liquid): 937.9 ± 7.3 J/K/mol
molar entropy ([2]; 330 K, Liquid): 961.7 ± 7.5 J/K/mol
molar entropy ([2]; 340 K, Liquid): 985.1 ± 7.7 J/K/mol
molar entropy ([2]; 350 K, Liquid): 1008 ± 8 J/K/mol
molar entropy ([2]; 360 K, Liquid): 1031 ± 8 J/K/mol
molar entropy ([2]; 370 K, Liquid): 1053 ± 8 J/K/mol
Triple point temperature ([2]; Crystal 1): 277.33 ± 0.05 K
Triple point temperature ([2]; Crystal 2): 249 ± 1 K

CCCCCCCCCCCCCCn1cc[n+](C)c1.O=S(=O)([N-]S(=O)(=O)C(F)(F)F)C(F)(F)F
Molar enthalpy of transition or fusion [1]: 45.18 ± 0.1 kJ/mol
molar entropy ([2]; 5 K, Crystal 2): 1.17 ± 0.06 J/K/mol
molar entropy ([2]; 10 K, Crystal 2): 7.53 ± 0.25 J/K/mol
molar entropy ([2]; 15 K, Crystal 2): 18.57 ± 0.5 J/K/mol
molar entropy ([2]; 20 K, Crystal 2): 32.77 ± 0.7 J/K/mol
molar entropy ([2]; 25 K, Crystal 2): 48.94 ± 0.84 J/K/mol
molar entropy ([2]; 30 K, Crystal 2): 66.22 ± 0.87 J/K/mol
molar entropy ([2]; 35 K, Crystal 2): 84.11 ± 1 J/K/mol
molar entropy ([2]; 40 K, Crystal 2): 102.3 ± 1.1 J/K/mol
molar entropy ([2]; 45 K, Crystal 2): 120.5 ± 1.3 J/K/mol
molar entropy ([2]; 50 K, Crystal 2): 138.7 ± 1.5 J/K/mol
molar entropy ([2]; 60 K, Crystal 2): 174.7 ± 1.7 J/K/mol
molar entropy ([2]; 70 K, Crystal 2): 209.8 ± 2.1 J/K/mol
molar entropy ([2]; 80 K, Crystal 2): 244 ± 2.3 J/K/mol
molar entropy ([2]; 90 K, Crystal 2): 277.1 ± 2.4 J/K/mol
molar entropy ([2]; 100 K, Crystal 2): 309.3 ± 2.7 J/K/mol
molar entropy ([2]; 110 K, Crystal 2): 340.5 ± 2.9 J/K/mol
molar entropy ([2]; 120 K, Crystal 2): 370.8 ± 3.1 J/K/mol
molar entropy ([2]; 130 K, Crystal 2): 400.3 ± 3.3 J/K/mol
molar entropy ([2]; 140 K, Crystal 2): 429.1 ± 3.5 J/K/mol
molar entropy ([2]; 150 K, Crystal 2): 457.2 ± 3.8 J/K/mol
molar entropy ([2]; 160 K, Crystal 2): 484.6 ± 4 J/K/mol
molar entropy ([2]; 170 K, Crystal 2): 511.6 ± 4.2 J/K/mol
molar entropy ([2]; 180 K, Crystal 2): 538.1 ± 4.4 J/K/mol
molar entropy ([2]; 190 K, Crystal 2): 564.2 ± 4.6 J/K/mol
molar entropy ([2]; 200 K, Crystal 2): 589.9 ± 4.8 J/K/mol
molar entropy ([2]; 210 K, Crystal 2): 615.5 ± 4.9 J/K/mol
molar entropy ([2]; 220 K, Crystal 2): 640.8 ± 5.1 J/K/mol
molar entropy ([2]; 230 K, Crystal 2): 666 ± 5.3 J/K/mol
molar entropy ([2]; 240 K, Crystal 2): 691.3 ± 5.5 J/K/mol
molar entropy ([2]; 250 K, Crystal 2): 716.7 ± 5.7 J/K/mol
molar entropy ([2]; 260 K, Crystal 2): 742.5 ± 5.9 J/K/mol
molar entropy ([2]; 270 K, Crystal 2): 769.1 ± 6 J/K/mol
molar entropy ([2]; 280 K, Crystal 2): 797.3 ± 6.2 J/K/mol
molar entropy ([2]; 290 K, Crystal 2): 829.7 ± 6.4 J/K/mol
molar entropy ([2]; 295.5 K, Crystal 1): 850.6 ± 6.6 J/K/mol
molar entropy ([2]; 295.5 K, Crystal 2): 850.6 ± 6.6 J/K/mol
molar entropy ([2]; 298.15 K, Crystal 1): 860.5 ± 6.8 J/K/mol
molar entropy ([2]; 300 K, Crystal 1): 866 ± 6.8 J/K/mol
molar entropy ([2]; 308.77 K, Crystal 1): 891.2 ± 7 J/K/mol
molar entropy ([2]; 308.77 K, Liquid): 1037 ± 8 J/K/mol
molar entropy ([2]; 310 K, Liquid): 1041 ± 8 J/K/mol
molar entropy ([2]; 320 K, Liquid): 1070 ± 9 J/K/mol
molar entropy ([2]; 330 K, Liquid): 1098 ± 9 J/K/mol
molar entropy ([2]; 340 K, Liquid): 1125 ± 9 J/K/mol
molar entropy ([2]; 350 K, Liquid): 1152 ± 9 J/K/mol
molar entropy ([2]; 360 K, Liquid): 1179 ± 9 J/K/mol
molar entropy ([2]; 370 K, Liquid): 1205 ± 9 J/K/mol
vapor or sublimation pressure ([2]; 498.07 K, Liquid): 2.76e-05 ± 1.7e-06 kPa
vapor or sublimation pressure ([2]; 503.06 K, Liquid): 3.85e-05 ± 2.4e-06 kPa
vapor or sublimation pressure ([2]; 508.05 K, Liquid): 5.39e-05 ± 3.3e-06 kPa
vapor or sublimation pressure ([2]; 513.05 K, Liquid): 7.45e-05 ± 4.6e-06 kPa
vapor or sublimation pressure ([2]; 518.04 K, Liquid): 0.0001018 ± 6.2e-06 kPa
vapor or sublimation pressure ([2]; 523.05 K, Liquid): 0.0001397 ± 8.6e-06 kPa
vapor or sublimation pressure ([2]; 528.05 K, Liquid): 0.0001898 ± 1.2e-05 kPa
Triple point temperature ([2]; Crystal 1): 308.77 ± 0.05 K
Triple point temperature ([2]; Crystal 2): 295.5 ± 0.4 K
